Data published in US20240350446A1, “CAROTENOID SOLUTIONS AND USES THEREOF” (L.E.A.F. HOLDINGS GROUP LLC, priority 2020, published 2024).

Columns and labels:
[1] = Solubility of TSC in aqueous PEG400/NaCl/sucrose formulations; format: physicochemical
Experimental: (§1) 1650 grams of sucrose was added to 51.59 Kg of WFI with mixing in a Nalgene tank containing a tank liner. 2475 grams of PEG400 was then added to the tank with mixing. After the sucrose and PEG400 were completely dissolved, 110 grams of TSC was added and the solution was mixed at room temperature for a minimum of 30 minutes or until the solution was clear. The solution was then filtered through a 0.45 μm glass fiber prefilter+0.2 μm sterile filter at a pump speed of 700 mL/min into a 100 L Biobag. A sample of the filtrate was pulled from the Biobag solution for a bioburden test. The Biobag was stored at 2-8° C. for at least 12 hours and then brought to room temperature and sterile filtered through 0.45 μm glass fiber prefilter+0.2 μm sterile filter at a pump speed of 700 mL/min to a 100 L Biobag. The sterile filtrate was then filled into amber 10R vials with a target 10.5 ml fill volume.
Other exemplary TSC aqueous solutions were formulated with varying concentrations of PEG400, NaCl, sucrose and TSC concentrations.
(§2) All formulations could be carried out at room temperature with mixing. The dissolution of TSC was generally completed within 10 minutes. […] The solution pH is around 8.7 and no further pH adjustment was needed. The final formulation has an osmolality around 270 mOsm.

[2] = Properties of TSC aqueous formulation (dissolution, crash-out on dilution/storage, pH, osmolality); format: physicochemical
Experimental: as §1, §2

Compound: CC(/C=C/C=C(\C)C(=O)[O-])=C\C=C\C=C(C)\C=C\C=C(/C)C(=O)[O-].[Na+].[Na+] [TSC, trans sodium crocetinate]
- Observation (solubility) ([1]; PEG400 2% (v/v), NaCl 0%, sucrose 0%, TSC 2 mg/mL): soluble
- Observation (solubility) ([1]; PEG400 4% (v/v), NaCl 0%, sucrose 0%, TSC 4 mg/mL): soluble
- Observation (solubility) ([1]; PEG400 4% (v/v), NaCl 0%, sucrose 3% (w/v), TSC 2 mg/mL): soluble
- Observation (solubility) ([1]; PEG400 4% (v/v), NaCl 0.9% (w/w), sucrose 0%, TSC 2 mg/mL (first of two identical lines)): partially soluble
- Observation (solubility) ([1]; PEG400 4% (v/v), NaCl 0.9% (w/w), sucrose 0%, TSC 2 mg/mL (second of two identical lines)): soluble
- Observation (solubility) ([1]; PEG400 4% (v/v), NaCl 0.9% (w/w), sucrose 0%, TSC 4 mg/mL): partially soluble
- Observation (solubility) ([1]; PEG400 6% (v/v), NaCl 0%, sucrose 0%, TSC 4 mg/mL): soluble
- Observation (solubility) ([1]; PEG400 8% (v/v), NaCl 0%, sucrose 0%, TSC 8 mg/mL): saturated with some
- Observation (solubility) ([1]; PEG400 80% (v/v), NaCl 0% (w/w), sucrose 0% (w/v), TSC 20 mg/mL): soluble
- dissolution of TSC, time to completion ([2]; all formulations, room temperature with mixing): ≤ 10 min
- TSC crash out of solution after storage ([2]; storage at 2-8° C.): No TSC was observed to crash out
- TSC crash out of the solution upon dilution ([2]; ten times dilution in 0.9% saline, 2 mg/mL formulation): No TSC was observed to crash out
